According to patent publication US20090023784A1, “USE OF DEFERIPRONE AND METHODS TO TREAT AND/OR PREVENT FRIEDREICH ATAXIA RESULTING FROM INTRACELLULAR MISHANDLING OF IRON” (priority 2006, published 2009):
“Also recorded” adds a separate entry of the source.

System: patients with Friedreich ataxia
Test: Phase I-II open pilot trial: ICARS, Perdue Pegboard and parents' observations (patients kept on idebenone)
Assay type: in vivo, human
Conditions: for Perdue pegboard: number of nails inserted
Text: Ten adolescents (four males, six females aged 14 to 23 yrs) with a diagnosis of Friedreich ataxia, confirmed by detection of a trinucleotide-repeat expansion in the first intron of the frataxin gene, were studied. Patients received deferiprone (Ferriprox™, Apotex Inc., Toronto, Canada) orally, in two doses for 1-5 months. Three patients were included, sequentially, for a minimum period of two months at each dose. Patient enrollment was staggered by two-weeks to enable monitoring of response. In the absence of toxicity, and with evidence of efficacy in any of the first 3 patients, a second group of 3 patients would be included at the same dose for a total duration of 6 months. If there was an absence of both efficacy and toxicity, the second group of three patients would be administered a higher dose. If toxicity developed, the current dose would be suspended and the trial resumed with the next group of patients at a lower dose. The patients were on idebenone (10 mg/kg/day, in three doses) for at least two years prior to inclusion and were kept on the drug at the same dose for the duration of the trial. MRI examinations were done at inclusion and at 1, 2, 4 and 6 months. The protocol was promoted by Assistance Publique-Hopitaux de Paris and approved by the local ethical committee and registered at the National Health Authority (AFSSAPS) and at the International Protocol Registration System (www.clinicaltrials.gov). A written informed consent was obtained from patients and parents.
The International Cooperative Ataxia Rating Score (ICARS) was used to assess the symptoms of ataxia before and after 1-5 months (Cano et al. International cooperative ataxia rating scale (ICARS): Appropriate for studies of Friedreich's ataxia? Mov Disord 2005; 20:1585-91). This scale has four subscales: posture and gait disturbance, kinetic functions, speech disorders and oculomotor disorders. Subscale scores are summed to give a total score ranging from 0 to 100. High scores indicated worse ataxia. The Perdue Pegboard test, which assesses speed of performance, delicate movements and manipulative dexterity, was included in the course of the study. This test assesses the ability of the participant to insert as many nails as possible into preset holes, linearly dug in a wooden board in a limited space of time (20 seconds with the two hands, separately and together). The tests were administered by the same investigator. Patients were monitored for neutropenia, agranulocytosis, musculoskeletal pains and zinc deficiency and had weekly blood counts, plasma iron, serum ferritin and transferrin concentration measurements, as well as assessments of renal and liver function.

[1] = patient eight, DFP 20 mg/kg, 4 mth, after trial
[2] = patient eight, DFP 20 mg/kg, 4 mth, prior to trial
[3] = patient five, DFP 30 mg/kg, 1 mth, after trial
[4] = patient five, DFP 30 mg/kg, 1 mth, prior to trial
[5] = patient four, DFP 20 mg/kg, 2 mth, after trial
[6] = patient four, DFP 20 mg/kg, 2 mth, prior to trial
[7] = patient one, DFP 20 mg/kg, 5 mth, after trial
[8] = patient one, DFP 20 mg/kg, 5 mth, prior to trial
[9] = patient six, DFP 30 mg/kg, 1 mth, after trial
[10] = patient six, DFP 30 mg/kg, 1 mth, prior to trial
[11] = patient three, DFP 20 mg/kg, 2 mth, after trial
[12] = patient three, DFP 20 mg/kg, 2 mth, prior to trial
[13] = patient two, DFP 20 mg/kg, 3 mth, after trial
[14] = patient two, DFP 20 mg/kg, 3 mth, prior to trial

Cc1c(O)c(=O)ccn1C [Deferiprone, 3-hydroxy-1,2-dimethylpyridin-4-one]
time to disappearance of constipation, incontinence and some subjective signs of peripheral neuropathy (20 mg/kg/day oral): 1-2 months
neurological condition noted by parents and uninformed relatives (20 mg/kg/day oral, within a few weeks, all treated patients): unexpected neurological improvement
changes of the ICARS scores (20 mg/kg/day, short period of the trial): mild changes of the ICARS scores
Perdue Pegboard test: speed of performances and dexterity (30 mg/kg/day oral, before and 1-2 months after onset): improvement of speed of performances and dexterity
Kinetic function (/29) [1]: 7
Oculomotor disorder (/6) [1]: 2
Posture and gait disturbance: 7 items (/34) [1]: 9
Posture and gait disturbance: gait speed [1]: 1
Posture and gait disturbance: spread feet [1]: 3
Posture and gait disturbance: standing eyes open [1]: 1
Posture and gait disturbance: walking [1]: 2
Speech disorder (/8) [1]: 2
Total ICARS (/100) [1]: 20
Observation (patient eight, DFP 20 mg/kg, 4 mth, listed as DFP): no more incontinence, improved gait and balance, warming; also recorded: up of feet
Kinetic function (/29) [2]: 7
Oculomotor disorder (/6) [2]: 2
Posture and gait disturbance: 7 items (/34) [2]: 12
Posture and gait disturbance: gait speed [2]: 1
Posture and gait disturbance: spread feet [2]: 3
Posture and gait disturbance: standing eyes open [2]: 2
Posture and gait disturbance: walking [2]: 3
Speech disorder (/8) [2]: 2
Total ICARS (/100) [2]: 23
Kinetic function (/29) [3]: 8
Oculomotor disorder (/6) [3]: 2
Posture and gait disturbance: 7 items (/34) [3]: 8
Posture and gait disturbance: gait speed [3]: 2
Posture and gait disturbance: spread feet [3]: 0
Posture and gait disturbance: standing eyes open [3]: 1
Posture and gait disturbance: walking [3]: 2
Speech disorder (/8) [3]: 2
Total ICARS (/100) [3]: 20
Observation (patient five, DFP 30 mg/kg, 1 mth, listed as DFP): no more constipation, incontinence and bending, improved; also recorded: balance and gait
Kinetic function (/29) [4]: 8
Oculomotor disorder (/6) [4]: 2
Posture and gait disturbance: 7 items (/34) [4]: 11
Posture and gait disturbance: gait speed [4]: 2
Posture and gait disturbance: spread feet [4]: 1
Posture and gait disturbance: standing eyes open [4]: 2
Posture and gait disturbance: walking [4]: 2
Speech disorder (/8) [4]: 2
Total ICARS (/100) [4]: 23
Kinetic function (/29) [5]: 12
Oculomotor disorder (/6) [5]: 0
Posture and gait disturbance: 7 items (/34) [5]: 13
Posture and gait disturbance: gait speed [5]: 1
Posture and gait disturbance: spread feet [5]: 2
Posture and gait disturbance: standing eyes open [5]: 1
Posture and gait disturbance: walking [5]: 3
Speech disorder (/8) [5]: 2
Total ICARS (/100) [5]: 27
Perdue pegboard [5]: 29
Perdue pegboard [6]: 37
Kinetic function (/29) [6]: 13
Oculomotor disorder (/6) [6]: 0
Posture and gait disturbance: 7 items (/34) [6]: 16
Posture and gait disturbance: gait speed [6]: 1
Posture and gait disturbance: spread feet [6]: 2
Posture and gait disturbance: standing eyes open [6]: 3
Posture and gait disturbance: walking [6]: 3
Speech disorder (/8) [6]: 2
Total ICARS (/100) [6]: 31
Kinetic function (/29) [7]: 7
Oculomotor disorder (/6) [7]: 2
Posture and gait disturbance: 7 items (/34) [7]: 27
Posture and gait disturbance: gait speed [7]: 3
Posture and gait disturbance: spread feet [7]: 2
Posture and gait disturbance: standing eyes open [7]: 4
Posture and gait disturbance: walking [7]: 7
Speech disorder (/8) [7]: 0
Total ICARS (/100) [7]: 37
Observation (patient one, DFP 20 mg/kg, 5 mth, listed as DFP): improved gait, writing, delicate movements, can move them; also recorded: toes, feels their feet, warming up of feet
Kinetic function (/29) [8]: 8
Oculomotor disorder (/6) [8]: 2
Posture and gait disturbance: 7 items (/34) [8]: 28
Posture and gait disturbance: gait speed [8]: 3
Posture and gait disturbance: spread feet [8]: 3
Posture and gait disturbance: standing eyes open [8]: 4
Posture and gait disturbance: walking [8]: 7
Speech disorder (/8) [8]: 1
Total ICARS (/100) [8]: 39
Observation (patient seven, DFP 20 mg/kg, 5 mth, listed as DFP): improved gait, writing, delicate movements, can move them; also recorded: toes, feels their feet, warming up of feet
Observation (patient six, DFP 30 mg/kg, 1 mth): improved gait and standing, no more constipation
Kinetic function (/29) [9]: 9
Oculomotor disorder (/6) [9]: 0
Posture and gait disturbance: 7 items (/34) [9]: 17
Posture and gait disturbance: gait speed [9]: 1
Posture and gait disturbance: spread feet [9]: 2
Posture and gait disturbance: standing eyes open [9]: 2
Posture and gait disturbance: walking [9]: 7
Speech disorder (/8) [9]: 0
Total ICARS (/100) [9]: 26
Perdue pegboard [9]: 39
Perdue pegboard [10]: 52
Kinetic function (/29) [10]: 9
Oculomotor disorder (/6) [10]: 0
Posture and gait disturbance: 7 items (/34) [10]: 20
Posture and gait disturbance: gait speed [10]: 1
Posture and gait disturbance: spread feet [10]: 2
Posture and gait disturbance: standing eyes open [10]: 3
Posture and gait disturbance: walking [10]: 7
Speech disorder (/8) [10]: 0
Total ICARS (/100) [10]: 29
Kinetic function (/29) [11]: 11
Oculomotor disorder (/6) [11]: 0
Posture and gait disturbance: 7 items (/34) [11]: 16
Posture and gait disturbance: gait speed [11]: 2
Posture and gait disturbance: spread feet [11]: 3
Posture and gait disturbance: standing eyes open [11]: 4
Posture and gait disturbance: walking [11]: 7
Speech disorder (/8) [11]: 2
Total ICARS (/100) [11]: 29
Perdue pegboard [11]: 44
Perdue pegboard [12]: 37
Kinetic function (/29) [12]: 11
Oculomotor disorder (/6) [12]: 0
Posture and gait disturbance: 7 items (/34) [12]: 17
Posture and gait disturbance: gait speed [12]: 2
Posture and gait disturbance: spread feet [12]: 3
Posture and gait disturbance: standing eyes open [12]: 5
Posture and gait disturbance: walking [12]: 7
Speech disorder (/8) [12]: 3
Total ICARS (/100) [12]: 31
Observation (patient two, DFP 20 mg/kg, 3 mth): no more fatigue, improved delicate movements
Kinetic function (/29) [13]: 21
Oculomotor disorder (/6) [13]: 2
Posture and gait disturbance: 7 items (/34) [13]: 32
Posture and gait disturbance: gait speed [13]: 4
Posture and gait disturbance: spread feet [13]: 4
Posture and gait disturbance: standing eyes open [13]: 6
Posture and gait disturbance: walking [13]: 7
Speech disorder (/8) [13]: 4
Total ICARS (/100) [13]: 59
Kinetic function (/29) [14]: 21
Oculomotor disorder (/6) [14]: 3
Posture and gait disturbance: 7 items (/34) [14]: 33
Posture and gait disturbance: gait speed [14]: 4
Posture and gait disturbance: spread feet [14]: 4
Posture and gait disturbance: standing eyes open [14]: 6
Posture and gait disturbance: walking [14]: 7
Speech disorder (/8) [14]: 4
Total ICARS (/100) [14]: 61
